Test results as given in paper PMC6723059, “A Collection of Bioactive Nitrogen-Containing Molecules from the Marine Sponge Acanthostrongylophora ingens” (Marine Drugs, 2019).

Molecular target: T1, cyclin-dependent kinase 2 (CDK2/cyclin A) (Homo sapiens, UniProt P24941)
T1 construct: with cyclin A
Assay: in vitro protein kinase activity assay, […] ATP
Type: biochemical

## O=C1N[C@@H](Cc2ccccc2)C(=O)N2CCC[C@H]12 [compound 6, cyclo(D-Pro-L-Phe)]
  IC50: 1000 nM
